The source of these data is patent US20220227707A1, “COMPOUNDS AND COMPOSITIONS FOR TREATING CONDITIONS ASSOCIATED WITH NLRP ACTIVITY” (Novartis AG, priority 2019, published 2022).

The first experiment relates to IL-1β production in PMA-differentiated THP-1 cells. The experiment is described as follows: IL-1β production in PMA-differentiated THP-1 cells stimulated with gramicidin (hTHP-1 assay). It counts as cell-based, human. The settings on record: Average IC50, hTHP-1 assay containing 2% fetal bovine serum; Table 10, numeric values. Here is the method:
Procedure 1: IL-1β Production in PMA-Differentiated THP-1 Cells Stimulated with Gramicidin
THP-1 cells were purchased from the American Type Culture Collection and sub-cultured according to instructions from the supplier. Cells were cultured in complete RPMI 1640 (containing 10% heat inactivated FBS, penicillin (100 units/ml) and streptomycin (100 μg/ml)), and maintained in log phase prior to experimental setup. Prior to the experiment, compounds were dissolved in dimethyl sulfoxide (DMSO) to generate a 30 mM stock. The compound stock was first pre-diluted in DMSO to 3, 0.34, 0.042 and 0.0083 mM intermediate concentrations and subsequently spotted using Echo550 liquid handler into an empty 384-well assay plate to achieve desired final concentration (e.g. 100, 33, 11, 3.7, 1.2, 0.41, 0.14, 0.046, 0.015, 0.0051, 0.0017 μM). DMSO was backfilled in the plate to achieve a final DMSO assay concentration of 0.37%. The plate was then sealed and stored at room temperature until required.
THP-1 cells were treated with PMA (Phorbol 12-myristate 13-acetate) (20 ng/ml) for 16-18 hours. On the day of the experiment the media was removed and adherent cells were detached with trypsin for 5 minutes. Cells were then harvested, washed with complete RPMI 1640, spun down, and resuspended in RPMI 1640 (containing 2% heat inactivated FBS, penicillin (100 units/ml) and streptomycin (100 μg/ml). The cells were plated in the 384-well assay plate containing the spotted compounds at a density of 50,000 cells/well (final assay volume 50 μl). Cells were incubated with compounds for 1 hour and then stimulated with gramicidin (5 μM) (Enzo) for 2 hours. Plates were then centrifuged at 340 g for 5 min. Cell free supernatant ([…]) was collected using a 96-channel PlateMaster (Gilson) and the production of IL-1β was evaluated by HTRF (cisbio). The plates were incubated for 18 h at 4° C. and read using the preset HTRF program (donor emission at 620 nm, acceptor emission at 668 nm) of the SpectraMax i3x spectrophotometer (Molecular Devices, software SoftMax 6). A vehicle only control and a dose titration of CRID3 (100-0.0017 μM) were run concurrently with each experiment.
Procedure 2: […] Production in PMA-Differentiated THP-1 Cells Stimulated with Gramicidin
THP-1 cells were purchased from the American Type Culture Collection and sub-cultured according to instructions from the supplier. Prior to experiments, cells were cultured in complete RPMI 1640 (containing 10% heat inactivated FBS, penicillin (100 units/ml) and streptomycin (100 μg/ml)), and maintained in log phase prior to experimental setup. Prior to the experiment THP-1 were treated with PMA (Phorbol 12-myristate 13-acetate) (20 ng/ml) for 16-18 hours. Compounds were dissolved in dimethyl sulfoxide (DMSO) to generate a 30 mM stock. On the day of the experiment the media was removed and adherent cells were detached with trypsin for 5 minutes. Cells were then harvested, washed with complete RPMI 1640, spun down, resuspended in RPMI 1640 (containing 2% heat inactivated FBS, penicillin (100 units/ml) and streptomycin (100 μg/ml). The cells were plated in a 384-well plate at a density of 50,000 cells/well (final assay volume 50 μl). Compounds were first dissolved in assay medium to obtain a 5× top concentration of 500 μM. 10 step dilutions (1:3) were then undertaken in assay medium containing 1.67% DMSO. 5× compound solutions were added to the culture medium to achieve desired final concentration (e.g. 100, 33, 11, 3.7, 1.2, 0.41, 0.14, 0.046, 0.015, 0.0051, 0.0017 μM). Final DMSO concentration was at 0.37%. Cells were incubated with compounds for 1 hour and then stimulated with gramicidin (5 μM) (Enzo) for 2 hours. Plates were then centrifuged at 340 g for 5 min. Cell free supernatant (40 μL) was collected using a 96-channel PlateMaster (Gilson) and the production of IL-1β was evaluated by HTRF (cisbio). A vehicle only control and a dose titration of CRID3 (100-0.0017 μM) were run concurrently with each experiment. […]
With `CC1(S(N)(=O)=NC(=O)Nc2c3c(cc4c2CCC4)CCC3)CC1` (stereo not drawn) [Compound 163], the half-maximal inhibitory concentration (IC50) was greater than 30 µM.

On to `CC(C)c1cc(F)cc(C(C)C)c1CC(=O)N=S(N)(=O)CCCN(C)C` (stereo not drawn) [Compound 302], for which the IC50 was greater than 30 µM.

Take `CC(C)c1cc(F)cc(C(C)C)c1CC(=O)N=S(N)(=O)CCCN(C)C` (stereo not drawn) [Compound 303]: the IC50 was greater than 30 µM.

`CC(C)c1cc(F)cc(C(C)C)c1CC(=O)N=S(N)(=O)C1CCCC1` (stereo not drawn) [Compound 305] yielded a concentration for half-maximal inhibition (IC50) greater than 30 µM.

`CC(C)c1cc(F)cc(C(C)C)c1CC(=O)N=S(N)(=O)C1CCCC1` (stereo not drawn) [Compound 306] registered an IC50 greater than 30 µM.

Compound `CC(C)c1cc(F)cc(C(C)C)c1CC(=O)N=S(N)(=O)C1CC1` (stereo not drawn) [Compound 309] gave an IC50 greater than 30 µM.

Staying with this experiment, now noted: Homo sapiens, THP-1, Average IC50, hTHP-1 assay containing 2% fetal bovine serum; Table 3B, class symbols.
The compound `CC(C)c1cc(C#N)cc(C(C)C)c1CC(=O)NS(=O)(=O)N1CCCCC1` [Compound 201B, 2-(4-cyano-2,6-diisopropylphenyl)-N-(piperidin-1-ylsulfonyl)acetamide] returned an IC50 of 5 to 30 µM.

`CC(C)c1cc(C#N)cc(C(C)C)c1CC(=O)NS(=O)(=O)N1CCC(CN(C)C)CC1` [Compound 202B, 2-(4-cyano-2,6-diisopropylphenyl)-N-((4-((dimethylamino)methyl)piperidin-1-yl)sulfonyl) acetamide] registered an IC50 of 5 to 30 µM.

Consider `CC(C)c1cc(C#N)cc(C(C)C)c1CC(=O)NS(=O)(=O)N1CCC(C(C)(C)O)C1` (stereo not drawn) [Compound 203B], for which the IC50 was in the range of 5 to 30 µM.

Still in this experiment, the particulars now being: Homo sapiens, THP-1, Average IC50, hTHP-1 assay containing 2% fetal bovine serum; Table 10, class symbols.
Compound `CC1(S(N)(=O)=NC(=O)Nc2c3c(cc4c2CCC4)CCC3)CC1` (stereo not drawn) [Compound 162] had an IC50 of 0.2 to 1 µM.

`CN(C)Cc1cccc(CS(N)(=O)=NC(=O)Nc2c3c(cc4c2CCC4)CCC3)c1` (stereo not drawn) [Compound 164, 1-(3-((dimethylamino)methyl)pheny1)-N′-((1,2,3,5,6,7-hexahydro-s-indacen-4-yl)carbamoyl) methane-sulfonimidamide]: the IC50 was in the range of 5 to 30 µM.

Compound `CC(C)(O)c1ccc(CS(N)(=O)=NC(=O)Nc2c3c(cc4c2CCC4)CCC3)cc1` (stereo not drawn) [Compound 165, N′-((1,2,3,5,6,7-hexahydro-s-indacen-4-yl)carbamoyl)-1-(4-(2-hydroxypropan-2-yl)phenyl)methane-sulfonimidamide] showed an IC50 of 0.2 to 1 µM.

Compound `CC(C)c1cc(F)cc(C(C)C)c1CC(=O)N=S(N)(=O)C1CC1` (stereo not drawn) [Compound 307] registered an IC50 of 0.008 to 0.04 µM.

On to `CC(C)c1cccc(C(C)C)c1NC(=O)NS(=O)(=O)CC(O)c1ccsc1` (stereo not drawn) [Compound 402], for which the half-maximal inhibitory concentration (IC50) was in the range of 5 to 30 µM.

Turning to `CC(C)c1cc(Cl)cc(C(C)C)c1NC(=O)NS(=O)(=O)CC(=O)c1ccsc1` [Compound 403], the IC50 was 5 to 30 µM.

On to `COC(=O)CCS(=O)(=O)NC(=O)Cc1c2c(cc3c1CCC3)CCC2` [Compound 504], for which the IC50 was in the range of 1 to 5 µM.

In turn, `CC(C)c1cc(F)cc(C(C)C)c1CC(=O)NS(=O)(=O)Cc1ccc(C(C)(C)O)cc1` [Compound 506] had an IC50 of 5 to 30 µM.

`COC(=O)CCS(=O)(=O)NC(=O)Cc1c(C(C)C)cc(F)cc1C(C)C` [Compound 520, methyl 3-(N-(2-(4-fluoro-2,6-diisopropylphenyl)acetyl)sulfamoyl) propanoate] gave an IC50 of 1 to 5 µM.

The same experiment, now with this note: Homo sapiens, THP-1, Average IC50, hTHP-1 assay containing 2% fetal bovine serum; Table 10, numeric values.
Compound `CC1(S(N)(=O)=NC(=O)Nc2c3c(cc4c2CCC4)CCC3)CC1` (stereo not drawn) [Compound 161] came in with an IC50 greater than 30 µM.

The compound `CC(C)c1cc(F)cc(C(C)C)c1CC(=O)N=S(N)(=O)CCCN(C)C` (stereo not drawn) [Compound 301] gave an IC50 greater than 30 µM.

The compound `CC(C)c1cc(F)cc(C(C)C)c1CC(=O)N=S(N)(=O)C1CCCC1` (stereo not drawn) [Compound 304] gave an IC50 greater than 30 µM.

Regarding `CC(C)c1cc(F)cc(C(C)C)c1CC(=O)N=S(N)(=O)C1CC1` (stereo not drawn) [Compound 308], the IC50 is greater than 30 µM.

The compound `CC(C)c1cc(F)cc(C(C)C)c1NC(=O)NS(=O)(=O)C1CC1` [Compound 401] came in with a 50% inhibitory concentration (IC50) of 31.5 µM.

The compound `COC(=O)CS(=O)(=O)NC(=O)Cc1c(C(C)C)cc(F)cc1C(C)C` [Compound 501] returned an IC50 greater than 100 µM.

In turn, `CC(C)c1cc(F)cc(C(C)C)c1CC(=O)NS(=O)(=O)Cc1cccc(C(C)(C)O)c1` [Compound 502] gave a 50% inhibitory concentration (IC50) greater than 100 µM.

The compound `CC(C)c1cc(F)cc(C(C)C)c1CC(=O)NS(=O)(=O)CC(=O)O` [Compound 503] showed an IC50 greater than 100 µM.

With `CC(C)c1ncc(CS(=O)(=O)NC(=O)Cc2c(C(C)C)cc(F)cc2C(C)C)s1` [Compound 505], the IC50 is greater than 97.1 µM.

In the case of `CC(C)c1cc(F)cc(C(C)C)c1CC(=O)NS(=O)(=O)Cc1ccc(CN)cc1` [Compound 507], the half-maximal inhibitory concentration (IC50) was greater than 100 µM.

With `CC(C)c1cc(F)cc(C(C)C)c1CC(=O)NS(=O)(=O)Cc1cccc(CN)c1` [Compound 508], the IC50 was greater than 100 µM.

As to `CC(C)c1cc(F)cc(C(C)C)c1CC(=O)NS(=O)(=O)CCCc1ccccc1` [Compound 509], the IC50 is greater than 30 µM.

`CC(C)c1cc(F)cc(C(C)C)c1CC(=O)NS(=O)(=O)Cc1cccc(C(=O)O)c1` [Compound 510] came in with an IC50 greater than 100 µM.

`CC(C)c1cc(F)cc(C(C)C)c1CC(=O)NS(=O)(=O)Cc1ccccc1` [Compound 511] gave an IC50 greater than 100 µM.

`CC(C)c1cc(F)cc(C(C)C)c1CC(=O)NS(=O)(=O)CCCC(=O)O` [Compound 512] registered a concentration for half-maximal inhibition (IC50) greater than 100 µM.

Take `COC(=O)CCCS(=O)(=O)NC(=O)Cc1c(C(C)C)cc(F)cc1C(C)C` [Compound 513]: the IC50 is greater than 30 µM.

For the compound `COC(=O)c1cccc(CS(=O)(=O)NC(=O)Cc2c(C(C)C)cc(F)cc2C(C)C)c1` [Compound 514], the IC50 is greater than 100 µM.

The compound `CC(C)c1cc(F)cc(C(C)C)c1CC(=O)NS(=O)(=O)CCC(=O)O` [Compound 515] displayed an IC50 greater than 100 µM.

In turn, `CC(C)c1cc(F)cc(C(C)C)c1CC(=O)NS(=O)(=O)CCc1ccccc1` [Compound 516] yielded a 50% inhibitory concentration (IC50) greater than 30 µM.

Turning to `CC(C)c1cc(F)cc(C(C)C)c1CC(=O)NS(=O)(=O)Cc1ccccc1C(=O)O` [Compound 517], the IC50 is greater than 100 µM.

Compound `CC(C)c1cc(F)cc(C(C)C)c1CC(=O)NS(=O)(=O)Cc1ccc(C(=O)O)cc1` [Compound 518] gave an IC50 greater than 100 µM.

In turn, `CC(C)c1cc(F)cc(C(C)C)c1CC(=O)NS(=O)(=O)Cc1cc(-c2ccccc2)no1` [Compound 519] yielded an IC50 greater than 30 µM.

The compound `CC(C)c1cc(F)cc(C(C)C)c1CC(=O)NS(=O)(=O)Cc1cccnc1` [Compound 522] displayed an IC50 greater than 100 µM.

`CC(C)c1cc(F)cc(C(C)C)c1CC(=O)NS(=O)(=O)Cc1cnn(C)c1` [Compound 528] came in with an IC50 greater than 30 µM.
